From US10752624B2, “Kinase inhibitors” (Origenis GmbH, priority 2012, dated 2020)

Legend:
SYK kinase = molecular target: T1, SYK kinase (Homo sapiens, UniProt P43405); test: SYK Assay (OMNIA Kinase Assay, SOX peptide fluorescence); type: biochemical; conditions: 1 mM ATP, 10 μM Omnia Peptide Substrate Tyr 7, 30° C., readings for 30 minutes; read-out: SYK Activities: IC50
T1 construct: purchased Invitrogen, Carlsbad
Method: In the assay OMNIA® KINASE ASSAY by Invitrogen Corporation (Carlsbad) the effect of invention of a compound on the phosphorylation is determined by measurement of fluorescence intensity of a chelation-enhanced fluorophore called SOX. Upon phosphorylation of the peptide by the kinase of interest, Mg2+ is chelated to form a bridge between the SOX moiety and the phosphate group that is transferred to the specific tyrosine on the peptide. The fluorescence intensity is directly proportional to the amount of peptide phosphorylation.
To the wells of an 384 well small volume plate (Greiner, Frickenhausen) are added (i) the compound under test in 5% DMSO/distilled water (2 μl), (ii) 16 μl of the master mix containing ATP, DTT, Kinase Reaction Buffer, Omina Peptide Substrate Tyr 7 resulting in a final concentration of 1 mM ATP, 0.2 mM DTT and 10 μM Peptide Substrate.
The Master Mix and the assay plate was incubated to reaction temperature before the measurement (30° C.). The reaction was started with addition of (iii) 2 μl 4 μg/ml SYK kinase (Invitrogen, Carlsbad). During measurement fluorescence intensity readings were collected using a TECAN M1000 at a wavelength of λex 360/λem 485 nm every 30 s for 30 minutes. The reaction velocity was plotted versus the inhibitor concentration to determine the IC50 using XLFit 5.0 (IDBS, Guildford) to fit to a sigmoidal dose response curve.

LRRK2 = LRRK2 (Homo sapiens, UniProt Q5S007); test: LRRK2-LRRK2 G2019S-Assay (LanthaScreen Eu Kinase Binding Assay); conditions: 5 nM LRRK2, 10 nM tracer 236, 2 nM EU-Anti-GST antibody, 1 h at RT; read-out: LRRK2 Activities: IC50
LRRK2, sequence (Q5S007 970-2527 limits assumed): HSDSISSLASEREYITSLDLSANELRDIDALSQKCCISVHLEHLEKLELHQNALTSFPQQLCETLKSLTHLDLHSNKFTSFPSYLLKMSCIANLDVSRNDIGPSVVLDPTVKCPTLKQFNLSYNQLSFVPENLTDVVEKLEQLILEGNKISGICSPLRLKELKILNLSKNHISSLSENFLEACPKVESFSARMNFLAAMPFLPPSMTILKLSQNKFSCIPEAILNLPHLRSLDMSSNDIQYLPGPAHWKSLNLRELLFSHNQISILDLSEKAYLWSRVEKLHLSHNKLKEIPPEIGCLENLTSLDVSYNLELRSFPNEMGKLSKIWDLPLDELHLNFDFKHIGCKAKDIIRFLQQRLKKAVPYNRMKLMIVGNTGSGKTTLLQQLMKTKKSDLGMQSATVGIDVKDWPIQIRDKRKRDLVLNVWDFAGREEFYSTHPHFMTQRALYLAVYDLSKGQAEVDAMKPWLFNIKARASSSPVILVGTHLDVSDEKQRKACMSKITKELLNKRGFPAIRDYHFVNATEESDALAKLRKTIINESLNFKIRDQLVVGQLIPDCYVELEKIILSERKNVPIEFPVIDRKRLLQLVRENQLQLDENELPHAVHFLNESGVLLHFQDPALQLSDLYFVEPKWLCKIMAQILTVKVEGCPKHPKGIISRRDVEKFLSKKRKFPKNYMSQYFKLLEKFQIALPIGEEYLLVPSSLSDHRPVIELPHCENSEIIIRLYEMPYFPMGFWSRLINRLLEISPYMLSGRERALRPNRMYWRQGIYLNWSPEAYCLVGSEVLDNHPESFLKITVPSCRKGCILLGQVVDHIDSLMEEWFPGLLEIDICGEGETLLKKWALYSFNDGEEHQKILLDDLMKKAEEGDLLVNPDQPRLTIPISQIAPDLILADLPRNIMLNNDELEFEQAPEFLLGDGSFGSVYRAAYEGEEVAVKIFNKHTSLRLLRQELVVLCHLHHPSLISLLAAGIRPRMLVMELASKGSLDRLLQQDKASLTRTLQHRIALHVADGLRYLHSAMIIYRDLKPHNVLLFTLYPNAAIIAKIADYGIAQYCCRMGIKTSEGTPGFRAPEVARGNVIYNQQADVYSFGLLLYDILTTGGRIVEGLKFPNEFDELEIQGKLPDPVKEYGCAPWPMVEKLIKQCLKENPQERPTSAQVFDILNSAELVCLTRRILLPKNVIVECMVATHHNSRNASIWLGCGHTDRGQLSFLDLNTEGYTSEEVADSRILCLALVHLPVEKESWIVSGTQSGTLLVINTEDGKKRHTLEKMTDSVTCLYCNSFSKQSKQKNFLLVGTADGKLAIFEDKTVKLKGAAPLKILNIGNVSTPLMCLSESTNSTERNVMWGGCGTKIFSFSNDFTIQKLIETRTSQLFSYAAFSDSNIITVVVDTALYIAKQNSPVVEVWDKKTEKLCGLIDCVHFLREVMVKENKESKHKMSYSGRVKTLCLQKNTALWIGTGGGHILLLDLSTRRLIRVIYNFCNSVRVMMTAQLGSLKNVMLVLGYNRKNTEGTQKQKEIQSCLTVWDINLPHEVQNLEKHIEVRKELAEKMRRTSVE
Outline: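 Compound competition with Alexa Fluor 647 tracer 236 (10 nM) was measured after 1 h at room temperature, using 5 nM LRRK2 (wild type or mutant) bound to 2 nM Eu-anti-GST antibody. IC50 was derived from the acceptor/donor (665/615 nm) ratio using a variable-slope dose-response fit.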

Structure (SMILES) | IC50 (SYK kinase) | IC50 (LRRK2)
COCCn1cc(Nc2nc3cc(SC)ccc3c3cn[nH]c23)cn1 [Example 171, N-(1-(2-methoxyethyl)-1H-pyrazol-4-yl)-7-(methylthio)-3H-pyrazolo[3,4-c]quinolin-4-amine] | 100 to 1000 nM | 100 to 1000 nM
CC(C)(C#N)n1cc(Nc2nc3ccc(S(C)(=O)=O)cc3c3cn[nH]c23)cn1 [Example 172, 2-methyl-2-(4-((8-(methylsulfonyl)-3H-pyrazolo[3,4-c]quinolin-4-yl)amino)-1H-pyrazol-1-yl)propanenitrile] | < 10 nM | 10 to 100 nM
CS(=O)(=O)c1ccc2nc(Nc3cnn(C4COC4)c3)c3[nH]ncc3c2c1 [Example 173, 8-(methylsulfonyl)-N-(1-(oxetan-3-yl)-1H-pyrazol-4-yl)-3H-pyrazolo[3,4-c]quinolin-4-amine] | < 10 nM | 10 to 100 nM
CS(=O)(=O)c1ccc2nc(Nc3ccc(C(=O)N4CCOCC4)c(F)c3)c3[nH]ncc3c2c1 [Example 175, (2-fluoro-4-((8-(methylsulfonyl)-3H-pyrazolo[3,4-c]quinolin-4-yl)amino)phenyl)(morpholino)methanone] | 100 to 1000 nM | 10 to 100 nM
COCCCn1cc(Nc2nc3ccc(S(C)(=O)=O)cc3c3cn[nH]c23)cn1 [Example 178, N-(1-(3-methoxypropyl)-1H-pyrazol-4-yl)-8-(methylsulfonyl)-3H-pyrazolo[3,4-c]quinolin-4-amine] | 10 to 100 nM | < 10 nM
CS(=O)(=O)c1ccc2nc(Nc3cnn(C4(C#N)CCCCC4)c3)c3[nH]ncc3c2c1 [Example 179, 1-(4-((8-(methylsulfonyl)-3H-pyrazolo[3,4-c]quinolin-4-yl)amino)-1H-pyrazol-1-yl)cyclohexanecarbonitrile] | 10 to 100 nM | < 10 nM
CC(C)n1cc(Nc2nc3ccc(S(C)(=O)=O)cc3c3cn[nH]c23)cn1 [Example 180, N-(1-isopropyl-1H-pyrazol-4-yl)-8-(methylsulfonyl)-3H-pyrazolo[3,4-c]quinolin-4-amine] | < 10 nM | < 10 nM
COc1cccc2nc(Nc3cnn(C(C)C)c3)c3[nH]ncc3c12 [Example 182, N-(1-isopropyl-1H-pyrazol-4-yl)-9-methoxy-3H-pyrazolo[3,4-c]quinolin-4-amine] | 10 to 100 nM | < 10 nM
COCCCn1cc(Nc2nc3cccc(OC)c3c3cn[nH]c23)cn1 [Example 183, 9-methoxy-N-(1-(3-methoxypropyl)-1H-pyrazol-4-yl)-3H-pyrazolo[3,4-c]quinolin-4-amine] | 100 to 1000 nM | < 10 nM
COc1cccc2nc(Nc3cnn(C(C)(C)C#N)c3)c3[nH]ncc3c12 [Example 184, 2-(4-((9-methoxy-3H-pyrazolo[3,4-c]quinolin-4-yl)amino)-1H-pyrazol-1-yl)-2-methylpropanenitrile] | 10 to 100 nM | < 10 nM
CS(=O)(=O)c1ccc2nc(Nc3cnn(CCO)c3)c3[nH]ncc3c2c1 [Example 186, 2-(4-((8-(methylsulfonyl)-3H-pyrazolo[3,4-c]quinolin-4-yl)amino)-1H-pyrazol-1-yl)ethan-1-ol] | 10 to 100 nM | < 10 nM
CC(C)Cn1cc(Nc2nc3ccc(S(C)(=O)=O)cc3c3cn[nH]c23)cn1 [Example 187, N-(1-isobutyl-1H-pyrazol-4-yl)-8-(methylsulfonyl)-3H-pyrazolo[3,4-c]quinolin-4-amine] | 10 to 100 nM | < 10 nM
CC(C)(C)n1cc(Nc2nc3cc(S(C)(=O)=O)ccc3c3cn[nH]c23)cn1 [Example 188, N-(1-(tert-butyl)-1H-pyrazol-4-yl)-7-(methylsulfonyl)-3H-pyrazolo[3,4-c]quinolin-4-amine] | 100 to 1000 nM | 10 to 100 nM
CC(C)n1cc(Nc2nc3cc(S(C)(=O)=O)ccc3c3cn[nH]c23)cn1 [Example 189, N-(1-isopropyl-1H-pyrazol-4-yl)-7-(methylsulfonyl)-3H-pyrazolo[3,4-c]quinolin-4-amine] | 10 to 100 nM | 10 to 100 nM
COCCCn1cc(Nc2nc3cc(S(C)(=O)=O)ccc3c3cn[nH]c23)cn1 [Example 190, N-(1-(3-methoxypropyl)-1H-pyrazol-4-yl)-7-(methylsulfonyl)-3H-pyrazolo[3,4-c]quinolin-4-amine] | 10 to 100 nM | 10 to 100 nM
CC(C)(C#N)n1cc(Nc2nc3cc(S(C)(=O)=O)ccc3c3cn[nH]c23)cn1 [Example 191, 2-methyl-2-(4-((7-(methylsulfonyl)-3H-pyrazolo[3,4-c]quinolin-4-yl)amino)-1H-pyrazol-1-yl)propanenitrile] | 100 to 1000 nM | 10 to 100 nM
CC(C)Cn1cc(Nc2nc3cc(S(C)(=O)=O)ccc3c3cn[nH]c23)cn1 [Example 192, N-(1-isobutyl-1H-pyrazol-4-yl)-7-(methylsulfonyl)-3H-pyrazolo[3,4-c]quinolin-4-amine] | 10 to 100 nM | 10 to 100 nM
CS(=O)(=O)c1ccc2c(c1)nc(Nc1cnn(CCO)c1)c1[nH]ncc12 [Example 193, 2-(4-((7-(methylsulfonyl)-3H-pyrazolo[3,4-c]quinolin-4-yl)amino)-1H-pyrazol-1-yl)ethan-1-ol] | 10 to 100 nM | < 10 nM
CC(C)(C)n1cc(Nc2nc3ccc(S(C)(=O)=O)cc3c3cn[nH]c23)cn1 [Example 195, N-(1-(tert-butyl)-1H-pyrazol-4-yl)-8-(methylsulfonyl)-3H-pyrazolo[3,4-c]quinolin-4-amine] | 10 to 100 nM | < 10 nM

The remaining lines, values ahead:

IC50 (SYK kinase) | IC50 (LRRK2) | Structure (SMILES)
100 to 1000 nM | 10 to 100 nM | COc1cc(C(=O)N2CCOCC2)ccc1Nc1nc2ccc(S(C)(=O)=O)cc2c2cn[nH]c12 [Example 196, (3-methoxy-4-((8-(methylsulfonyl)-3H-pyrazolo[3,4-c]quinolin-4-yl)amino)phenyl)(morpholino)methanone]
10 to 100 nM | 10 to 100 nM | CS(=O)(=O)c1ccc2c(c1)nc(Nc1cnn(C3CC3)c1)c1[nH]ncc12 [Example 197, N-(1-cyclopropyl-1H-pyrazol-4-yl)-7-(methylsulfonyl)-3H-pyrazolo[3,4-c]quinolin-4-amine]
100 to 1000 nM | < 10 nM | COc1cccc2nc(Nc3cnn(CC(C)C)c3)c3[nH]ncc3c12 [Example 198, N-(1-isobutyl-1H-pyrazol-4-yl)-9-methoxy-3H-pyrazolo[3,4-c]quinolin-4-amine]
100 to 1000 nM | < 10 nM | COc1cccc2nc(Nc3cnn(CCO)c3)c3[nH]ncc3c12 [Example 199, 2-(4-((9-methoxy-3H-pyrazolo[3,4-c]quinolin-4-yl)amino)-1H-pyrazol-1-yl)ethan-1-ol]
100 to 1000 nM | < 10 nM | COc1cccc2nc(Nc3cnn(C4CC4)c3)c3[nH]ncc3c12 [Example 201, N-(1-cyclopropyl-1H-pyrazol-4-yl)-9-methoxy-3H-pyrazolo[3,4-c]quinolin-4-amine]
< 10 nM | < 10 nM | CS(=O)(=O)c1ccc2nc(Nc3cnn(C4CC4)c3)c3[nH]ncc3c2c1 [Example 203, N-(1-cyclopropyl-1H-pyrazol-4-yl)-8-(methylsulfonyl)-3H-pyrazolo[3,4-c]quinolin-4-amine]
100 to 1000 nM | < 10 nM | COCC(C)(C)n1cc(Nc2nc3cccc(OC)c3c3cn[nH]c23)cn1 [Example 204, 9-methoxy-N-(1-(1-methoxy-2-methylpropan-2-yl)-1H-pyrazol-4-yl)-3H-pyrazolo[3,4-c]quinolin-4-amine]
10 to 100 nM | < 10 nM | COc1cccc2nc(Nc3cnn(C4CCN(C(C)(C)C)CC4)c3)c3[nH]ncc3c12 [Example 206, N-(1-(1-(tert-butyl)piperidin-4-yl)-1H-pyrazol-4-yl)-9-methoxy-3H-pyrazolo[3,4-c]quinolin-4-amine]
10 to 100 nM | < 10 nM | COCC(C)(C)n1cc(Nc2nc3ccc(S(C)(=O)=O)cc3c3cn[nH]c23)cn1 [Example 208, N-(1-(1-methoxy-2-methylpropan-2-yl)-1H-pyrazol-4-yl)-8-(methylsulfonyl)-3H-pyrazolo[3,4-c]quinolin-4-amine]
< 10 nM | < 10 nM | CC(C)(C)N1CCC(n2cc(Nc3nc4ccc(S(C)(=O)=O)cc4c4cn[nH]c34)cn2)CC1 [Example 211, N-(1-(1-(tert-butyl)piperidin-4-yl)-1H-pyrazol-4-yl)-8-(methylsulfonyl)-3H-pyrazolo[3,4-c]quinolin-4-amine]
< 10 nM | < 10 nM | CS(=O)(=O)c1ccc2nc(Nc3cnn(CCF)c3)c3[nH]ncc3c2c1 [Example 221, N-(1-(2-fluoroethyl)-1H-pyrazol-4-yl)-8-(methylsulfonyl)-3H-pyrazolo[3,4-c]quinolin-4-amine]
100 to 1000 nM | < 10 nM | COc1nn(C(C)C)cc1Nc1nc2cccc(OC)c2c2cn[nH]c12 [Example 224, N-(1-isopropyl-3-methoxy-1H-pyrazol-4-yl)-9-methoxy-3H-pyrazolo[3,4-c]quinolin-4-amine]
